Experiment [1] has as its system patients with HE. In words: Retrospective chart review of 145 patients with HE, lactulose then rifaximin. In kind it is in vivo, human. An excerpt: Total number of hospitalizations, duration of hospitalizations, HE endpoints, and cost of therapy were compared between the 2 treatment regimens.
For experiment [2], the system named is liver transplant patients with HE. In words: Chart review of 39 liver transplant patients with HE Conn scores of 2. To be noted: 24 lactulose, 15 rifaximin. In kind it is in vivo, human.
The test system of experiment [3] is patients with HE. To be noted: 6-month study; rifaximin 1200 mg/day, neomycin 3 g/day; 14 days on, 14 days off per month; cited from earlier work.

Consider `OC[C@H]1O[C@@H](O[C@@H]2[C@@H](CO)OC(O)(CO)[C@H]2O)[C@H](O)[C@@H](O)[C@H]1O` (mixture of isomers) [lactulose], for which, in the experiment on patients with HE [1], the “patients with Conn scores of 3 or 4 at end of treatment period” value is reported as 25%. Further, in experiment [2], the “hospitalizations reported for the group” value is recorded as “Nineteen”.

With neomycin, the “efficacy in patients with HE, rifaximin versus neomycin” value in the experiment on patients with HE [3] was “comparable efficacy”.

The values above are taken from patent US12697326B2, “Methods of treating hepatic encephalopathy” (SALIX PHARMACEUTICALS, INC., priority 2008, dated 2026).
